Consider four compounds from patent EP0935963A2, “The use of MMP-13 selective inhibitors for the treatment of osteoarthritis and other matrix metalloproteinase-mediated disorders” (Pfizer Products Inc., priority 1997, dated 1999).

SMILES strings stand for the structures. Where two headings read alike, the source gives them in different places.

Series [1] relates to cartilage conditioned medium collagenase activity. Briefly: Collagen film assay with cartilage conditioned medium as enzyme source. The format is biochemical. How it is done:
(§1) Rat type I collagen is radiolabeled with ^14C acetic anhydride (T.E. Cawston and A.J. Barrett, Anal. Biochem., 99, 340-345 (1979)) and used to prepare 96 well plates containing radiolabeled collagen films (Barbara Johnson-Wint, Anal. Biochem., 104, 175-181 (1980)). When a solution containing collagenase is added to the well, the enzyme cleaves the insoluble collagen which unwinds and is thus solubilized. Collagenase activity is directly proportional to the amount of collagen solubilized, determined by the proportion of radioactivity released into the supernatant as measured in a standard scintillation counter. Collagenase inhibitors are, therefore, compounds which reduce the radioactive counts released with respect to the controls with no inhibitor present. One specific embodiment of this assay is described in detail below.
(§2) Stock solutions of test compound (10mM) in dimethylsulfoxide are prepared. Dilutions of the test compounds in the Tris buffer, above, are made to 0.2, 2.0, 20, 200, 2000 and 20000 nM.
(§3) 100 µl of appropriate drug dilution and 100 µl of diluted enzyme are pipetted into wells of a 96 well plate containing collagen films labeled with ^14C-collagen. The final enzyme concentration is 0.3 µg/ml while the final drug concentration is 0.1, 1.0, 10, 100, 1000 nM. Each drug concentration and control is analyzed in triplicate. Triplicate controls are also run for the conditions in which no enzyme is present and for enzyme in the absence of any compound.
(§4) The plates are incubated at 37°C for a time period such that around 30 - 50% of the available collagen is solubilized - determined by counting additional control wells at various time points. In most cases around 9 hours of incubation are required. When the assay has progressed sufficiently, the supernatant from each well is removed and counted in a scintillation counter. The background counts (determined by the counts in the wells with no enzyme) are subtracted from each sample and the % release calculated in relation to the wells with enzyme only and no inhibitor. The triplicate values for each point are averaged and the data graphed as percent release versus drug concentration. IC50's are determined from the point at which 50% inhibition of release of radiolabeled collagen is obtained.
To determine the identity of the active collagenases in cartilage conditioned medium, assays were carried out using collagen as a substrate, cartilage conditioned medium containing collagenase activity and inhibtors of varying selectivity. The cartilage conditioned medium was collected during the time at which collagen degradation was occurring and thus is representative of the collagenases responsible for the collagen breakdown. Assays were carried out as outlined above except that instead of using recombinant MMP-13 or recombinant MMP-1, cartilage conditioned medium was the enzyme source. […]

Series [2] has as its system bovine nasal cartilage explants. Description: IL-1 Induced Cartilage Collagen Degradation From Bovine Nasal Cartilage (cartilage explant assay). The format is cell-based. As to conditions: Bos taurus. From the text: This assay uses bovine nasal cartilage explants which are commonly used to test the efficacy of various compounds to inhibit either IL-1 induced proteoglycan degradation or IL-1 induced collagen degradation. Bovine nasal cartilage is a tissue that is very similar to articular cartilage, i.e. chondrocytes surrounded by a matrix that is primarily type II collagen and aggrecan. The tissue is used because it: (1) is very similar to articular cartilage, (2) is readily available, (3) is relatively homogeneous, and (4) degrades with predictable kinetics after IL-1 stimulation.
Two variations of this assay have been used to assay compounds. Both variations give similar data. The two variations are described below:
Three plugs of bovine nasal cartilage (approximately 2 mm diameter x 1.5 mm long) are placed into each well of a 24 well tissue culture plate. One ml of serumless medium is then added to each well. Compounds are prepared as 10 mM stock solutions in DMSO and then diluted appropriately in serumless medium to final concentrations, e.g., 50, 500 and 5000 nM. Each concentration is assayed in triplicate.
Human recombinant IL-1α (5ng/mL) (IL-1) is added to triplicate control wells and to each well containing drug. Triplicate control wells are also set up in which neither drug nor IL-1 are added. The medium is removed and fresh medium containing IL-1 and the appropriate drug concentrations is added on days 6, 12, 18 and 24 or every 3 - 4 days if necessary. The media removed at each time point is stored at -20°C for later analysis. When the cartilage in the IL-1 alone wells has almost completely resorbed (about day 21), the experiment is terminated. The medium, is removed and stored. Aliquots (100 ul) from each well at each time point are pooled, digested with papain and then analyzed for hydroxyproline content. Background hydroxyproline (average of wells with no IL-1 and no drug) is subtracted from each data point and the average calculated for each triplicate. The data is then expressed as a percent of the IL-1 alone average value and plotted. The IC50 is determined from this plot.
The experimental set-up is the same as outlined above in Variation 1, until day 12. On day 12, the conditioned medium from each well is removed and frozen. Then one ml of phosphate buffered saline (PBS) containing 0.5 µg/ml trypsin is added to each well and incubation continued for a further 48 hours at 37°C. After 48 hours incubation in trypsin, the PBS solution is removed. Aliquots (50 µl) of the PBS/trypsin solution and the previous two time points (days 6 and 12) are pooled. hydrolyzed and hydroxyproline content determined. Background hydroxyproline (average of wells with no IL-1 and no drug) is subtracted from each data point and the average calculated for each triplicate. The data is then expressed as a percent of the IL-1 alone average value and plotted. The IC50 is determined from this plot. In this variation, the time course of the experiment is shortened considerably. The addition of trypsin for 48 hours after 12 days of IL-1 stimulation likely releases any type II collagen that has been damaged by collagenase activity but not yet released from the cartilage matrix. In the absence of IL-1 stimulation, trypsin treatment produces only low background levels of collagen degradation in the cartilage explants.

Series [3] has as its target T1, MMP-13 (Homo sapiens, UniProt P45452). Description: biochemical. How it is done: as §1, with “Collagenase activity is directly proportional to the amount of collagen solubilized, determined by the proportion of radioactivity released into the supernatant as measured in a standard scintillation counter.” left out
(§5) For determining the selectivity of compounds for MMP-13 versus MMP-1 using collagen as a substrate, the following procedure is used. Recombinant human proMMP-13 or proMMP-1 is activated according to the procedures outlined in Experiment 1. The activated MMP-13 or MMP-1 is diluted to 0.6 ug/ml with buffer ( 50 mM Tris pH 7.5, 150 mM NaCI, 10 mM CaCl2, 1 uM ZnCl2, 0.05% Brij-35, 0.02% sodium azide).
as §2, §3, §4

The target of series [4] is T1, MMP-13. Description: Inhibition of MMP-13, fluorescence assay. Type of series: biochemical. As for the experimental part:
Human recombinant MMP-13 is activated with 2 mM APMA (p-aminophenyl mercuric acetate) for 1.5 hours, at 37°C and is then diluted to […] in assay buffer (50 mM Tris, pH 7.5, 200 mM sodium chloride, 5mM calcium chloride, 20µM zinc chloride, 0.02% Brij 35). Twenty-five microliters of diluted enzyme is added per well of a 96 well microfluor plate. The enzyme is then diluted in a 1:4 ratio in the assay by the addition of inhibitor and substrate to give a final concentration in the assay of 60 ng/ml.
Stock solutions (10 mM) of inhibitors are made up in dimethylsulfoxide and then diluted in assay buffer as per the inhibitor dilution scheme for inhibition of human collagenase-1. Twenty-five microliters of each concentration is added to triplicate wells of a microfluor plate. The final concentrations in the assay are 30 µM, 3 µM, 0.3 µM, and 0.03 µM.
Substrate (Dnp-Pro-Cha-Gly-Cys(Me)-His-Ala-Lys(NMA)-NH2) is prepared as for inhibition of human collagenase (MMP-1) and […] is added to each well to give a final assay concentration of 10 µM. Fluorescence readings (360 nm excitation; 450 nm emission) are taken at time 0 and every 5 minutes for 1 hour.
Positive controls and negative controls are set up in triplicate as outlined in the MMP-1 assay.
IC50's are determined as per inhibition of human collagenase (MMP-1). If IC50's are reported to be less than […], inhibitors are then assayed at final concentrations of 0.3 µM, 0.03 µM, 0.003 µM and 0.0003 µM.

Series [5] has as its target T2, MMP-1 (Homo sapiens, UniProt P03956).
T2 sequence (P03956 100-469): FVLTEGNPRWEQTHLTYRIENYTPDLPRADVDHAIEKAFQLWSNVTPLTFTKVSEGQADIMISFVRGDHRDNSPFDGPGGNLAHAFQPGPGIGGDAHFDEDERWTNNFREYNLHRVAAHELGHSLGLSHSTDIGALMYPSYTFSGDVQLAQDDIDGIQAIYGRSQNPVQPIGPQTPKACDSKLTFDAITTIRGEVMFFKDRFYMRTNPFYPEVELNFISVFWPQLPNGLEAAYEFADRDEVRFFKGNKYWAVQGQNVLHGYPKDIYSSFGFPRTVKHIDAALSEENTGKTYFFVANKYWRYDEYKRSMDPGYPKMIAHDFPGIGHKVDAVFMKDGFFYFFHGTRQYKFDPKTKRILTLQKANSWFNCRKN
Description: biochemical. As for the experimental part:
as §1, with “Collagenase activity is directly proportional to the amount of collagen solubilized, determined by the proportion of radioactivity released into the supernatant as measured in a standard scintillation counter.” left out
as §5, §2, §3, §4

The target in series [6] is T3, Human recombinant collagenase-1 (Homo sapiens, UniProt P03956).
T3 sequence (P03956 100-469): T2 sequence (P03956 100-469)
Description: Inhibition of Human Collagenase (MMP-1), fluorescence assay. Type of series: biochemical. As for the experimental part:
Human recombinant collagenase-1 is activated with trypsin.
The final concentration of inhibitor will be a 1:4 dilution after addition of enzyme and substrate.
Final concentration of collagenase in the assay is 60 ng/ml.
Fluorescence versus time is then plotted for both the blank and collagenase containing samples (data from triplicate determinations is averaged). […] The zero time is used as a blank for each compound at each concentration and these values are subtracted from the 120 minute data.

For series [7] the following is noted: clinical trial data, Proceedings of ASCO, 15, 490 (1996); cited from earlier work.
The mark [8] stands for this setting: Table 2, collagen film substrate.
Where [9] appears, read: Table 3 (repeated for comparison).
The mark [10] stands for this setting: 504 h, Variation 1: IL-1 stimulation until about day 21, hydroxyproline content, read-out: Cartilage Explant Assay IC50 Variation 1.
Setting [11] is: read-out: Average IC50 (variation 1 and 2), average of variation 1 and 2.
The mark [12] stands for this setting: Variation 2: 12 days IL-1, then trypsin 48 hours, hydroxyproline content, read-out: Cartilage Explant Assay IC50 Variation 2.

For the compound `CNC(=O)[C@H](Cc1ccc(OC)cc1)NC(=O)C(CC(=O)NO)CC(C)C` (stereo partly drawn) [Example 1, reference compound], the “inhibition of the cartilage conditioned medium collagenase activity (in words)” value (from here on “inhibition”) in series [1] is recorded as “potent inhibitor”. Also, the IC50 (in general, the point on the concentration scale where inhibition reaches its midpoint) in series [1] (setting [8]) was 10 nM; in series [1] (setting [9]), 10 nM; in series [2] (setting [10]), 60 nM; in series [2] (setting [11]) it was 90 nM; in series [2] (setting [12]), 50 nM; in series [3], 1.5 nM. Besides, the IC50 in series [4] came to 1.5 nM.
For `O=C(CN(Cc1cccnc1)S(=O)(=O)c1ccc(OCc2ccccc2)cc1)NO` [Example 2], the “inhibition” value in series [1] is on record as “potent inhibitors”. The IC50 in series [1] (setting [8]) worked out at 220 nM; in series [1] (setting [9]), 220 nM; in series [2] (setting [10]), 900 nM; in series [2] (setting [11]), 725 nM; in series [2] (setting [12]), 550 nM; in series [5] (Table 2, type I collagen film substrate, read-out: MMP-1 Type I Collagen IC50), 22000 nM. The IC50 is 52 nM in series [3] (Table 2, type I collagen film substrate, read-out: MMP-13 Type 1 Collagen IC50); 17700 nM in series [6] (fluorescent peptide substrate, read-out: MMP-1 Fluor. IC50); 5.4 nM in series [4] (fluorescent peptide substrate, read-out: MMP-13 Fluor. IC50).
In the case of `CNC(=O)[C@@H](NC(=O)[C@H](CC(C)C)[C@H](O)C(=O)NO)C(C)(C)C` [marimastat], the “connective tissue side effects” value in series [7] is “significant dose-related connective tissue side effects”.
On to `CNC(=O)C(Cc1ccc(OC)cc1)NC(=O)C(CCCCOc1ccccc1)CP(=O)(O)Cc1ccc(Cc2ccccc2)cc1` (stereo not drawn) [Example 3], for which the “inhibition” value in series [1] is reported as “potent inhibitors”. The IC50 in series [1] (setting [8]) came out at 400 nM; in series [1] (setting [9]) it was 400 nM; in series [2] (setting [12]), 830 nM; in series [5], 40000 nM; in series [3], 40 nM; in series [6] it was 21700 nM. Further, the midpoint of inhibition in series [4], the IC50, lay at 70 nM.
